Measured values: ChEMBL document CHEMBL3407403, “Synthetic modification of hydroxychavicol by Mannich reaction and alkyne-azide cycloaddition derivatives depicting cytotoxic potential” (Eur J Med Chem, 2015)

What was measured:
[1] = Growth inhibition of human HL60 cells at 30 uM after 72 hrs by MTT assay; format: functional; conditions: HL-60, 72 h, read-out: GI
[2] = Growth inhibition of human HL60 cells at 50 uM after 72 hrs by MTT assay; format: functional; conditions: HL-60, 72 h, read-out: GI
[3] = Growth inhibition of human MIAPaCa2 cells at 30 uM after 72 hrs by MTT assay; format: functional; conditions: MIA PaCa-2, 72 h, read-out: GI
[4] = Growth inhibition of human MIAPaCa2 cells at 50 uM after 72 hrs by MTT assay; format: functional; conditions: MIA PaCa-2, 72 h, read-out: GI
MCF7 [5] = assay: Growth inhibition of human MCF7 cells at 30 uM after 72 hrs by MTT assay; format: functional; conditions: MCF7, 72 h, read-out: GI
MCF7 [6] = assay: Growth inhibition of human MCF7 cells at 50 uM after 72 hrs by MTT assay; format: functional; conditions: MCF7, 72 h, read-out: GI
HepG2 [7] = assay: Growth inhibition of human HepG2 cells at 30 uM after 72 hrs by MTT assay; format: functional; conditions: HepG2, 72 h, read-out: GI
HepG2 [8] = assay: Growth inhibition of human HepG2 cells at 50 uM after 72 hrs by MTT assay; format: functional; conditions: HepG2, 72 h, read-out: GI
SK-N-SH [9] = assay: Growth inhibition of human SK-N-SH cells at 30 uM after 72 hrs by MTT assay; format: functional; conditions: read-out: GI
SK-N-SH [10] = assay: Growth inhibition of human SK-N-SH cells at 50 uM after 72 hrs by MTT assay; format: functional; conditions: read-out: GI
[11] = Growth inhibition of human HL60 cells after 72 hrs by MTT assay; format: functional, cell-based; conditions: HL-60, 72 h
[12] = Growth inhibition of human MIAPaCa2 cells after 72 hrs by MTT assay; format: functional, cell-based; conditions: MIA PaCa-2, 72 h
MCF7 [13] = assay: Growth inhibition of human MCF7 cells after 72 hrs by MTT assay; format: functional, cell-based; conditions: MCF7, 72 h
HepG2 [14] = assay: Growth inhibition of human HepG2 cells after 72 hrs by MTT assay; format: functional, cell-based; conditions: HepG2, 72 h
SK-N-SH [15] = assay: Growth inhibition of human SK-N-SH cells after 72 hrs by MTT assay; format: functional, cell-based
[16] = Growth inhibition of human HL60 cells after 24 hrs by MTT assay; format: functional, cell-based; conditions: HL-60, 24 h

IC50 (MCF7 [13]) [µM]	IC50 (HepG2 [14]) [µM]	IC50 (SK-N-SH [15]) [µM]	SMILES	inhibition of growth at 30 µM [1] [%]	inhibition of growth at 50 µM [2] [%]	inhibition of growth at 30 µM [3] [%]	inhibition of growth at 50 µM [4] [%]	inhibition of growth at 30 µM (MCF7 [5]) [%]	inhibition of growth at 50 µM (MCF7 [6]) [%]	inhibition of growth at 30 µM (HepG2 [7]) [%]	inhibition of growth at 50 µM (HepG2 [8]) [%]	inhibition of growth at 30 µM (SK-N-SH [9]) [%]	inhibition of growth at 50 µM (SK-N-SH [10]) [%]	IC50 [11] [µM]	IC50 [12] [µM]	IC50 [16] [µM]
			C=CCc1cc(O)c(O)c(CN2CCC(C)CC2)c1	91.1	91.8	91.5	90.6	41.7	54.2	57.6	69.7	74.7	84.2			
			C=CCc1ccc(OCc2cn(-c3cccc(C#N)c3)nn2)c(O)c1	22.5	30.9	26.6	41.6	31.9	33.4	2.3	3.4	21.2	78.8			
			C=CCc1ccc(OCc2cn(-c3ccc(Br)cc3)nn2)c(O)c1	22.1	25.6	43.3	47.3	19.4	29.1	8.9	9.5	38.3	61.7			
			C=CCc1cc(O)c(O)c(CN2CCC(CCO)CC2)c1	39.4	52.1	54.4	71.8	21.4	33.3	2.5	2	15.3	40.6			
			C=CCc1ccc(OCc2cn(-c3ccc(C(=O)c4ccccc4)cc3)nn2)c(O)c1	38.3	40.5	40.1	53.7	40.3	35.6	14.8	16.2	41.9	58.1			
			C=CCc1cc(O)c(O)c(CN2CCN(C)CC2)c1	42.1	53.4	46.8	69.5	22.8	35.1	1.5	6.3	24.7	30.8			
			C=CCc1ccc(OCc2cn(-c3ccccc3CO)nn2)c(O)c1	31.7	47.1	39.6	52.1	34.5	40.4	4.2	8.5	12.9	87.1			
16	22	11	C=CCc1cc(O)c(O)c(CN2CCC(Cc3ccccc3)CC2)c1	90.6	94.4	88.9	90.9	70.9	86.3	70.2	84	78.8	83.4	3	4	15
			C=CCc1cc(O)c(O)c(CN2CCOCC2)c1	89.8	90.5	54.4	67.5	33.5	48.9	2.1	6.5	49.6	86.1			
			C#CCOc1ccc(CC=C)cc1O	30.7	34.2	27.4	30.3	23.7	15.8	1.5	5.6	11.8	88.4			
			C=CCc1ccc(OCc2cn(-c3cc(OC)c(OC)c(OC)c3)nn2)c(O)c1	32.8	41.4	41.1	49.8	37.3	38.1	1.2	2.5	44.1	55.9			
			C=CCc1ccc(OCc2cn(-c3cccc([N+](=O)[O-])c3)nn2)c(O)c1	29.8	65.5	42.9	58.8	42.3	56.5	15.2	30.2	31.1	68.9			
			C=CCc1ccc(OCc2cn(-c3ccccc3Cl)nn2)c(O)c1	38.7	43.2	46.6	57.7	58.3	34.3	2.5	4.7	10.2	42.8			
			C=CCc1cc(O)c(O)c(CN2CCN(c3ccc(C(C)=O)cc3)CC2)c1	87.9	89.2	86.2	75.1	42.8	47.1	46.1	65.9	53.8	54.6			
			C=CCc1ccc(OCc2cn(-c3ccc(C#N)cc3)nn2)c(O)c1	20.8	31.8	39.3	45.9	35.7	35.6	1.5	12.1	37.5	62.5			
			C=CCc1cc(O)c(O)c(CN2CCC(CO)CC2)c1	37.7	43.3	34.1	38.6	26.2	32.3	4.7	5.4	21.9	49.4			
			C=CCc1ccc(OCc2cn(-c3ccc(OC)cc3)nn2)c(O)c1	21.3	38.9	62.3	88.2	38.8	57.2	15.4	49.9	31.5	68.5			
